In ChEMBL document CHEMBL1201862, “PubChem BioAssay data set” (2004):
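A five-concentration, 48-hour dose response in 96-well plates underlies each endpoint, interpolated linearly between surrounding concentrations. GI50 marks 50% less growth.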 Activity calls are given as the source filed them. No stated cut-off is given here; in the data, active = GI50 up to about 1.1 µM and inactive = higher.

Experiments:
Test in all cases: DTP human tumour cell line panel, 48 h
SK-MEL-28 = tested on: SK-MEL-28
HT-29 = tested on: HT-29
KM12 = tested on: KM12
SW-620 = tested on: SW-620
SNB-19 = tested on: SNB-19
HOP-62 = tested on: HOP-62
HOP-92 = tested on: HOP-92
DU-145 = tested on: DU-145
SF-295 = tested on: SF-295
RXF 393 = tested on: RXF 393
TK-10 = tested on: TK-10
EKVX = tested on: EKVX
OVCAR-8 = tested on: OVCAR-8
A549 = tested on: A549
OVCAR-3 = tested on: OVCAR-3
HCT-15 = tested on: HCT-15
UACC-257 = tested on: UACC-257
SK-MEL-5 = tested on: SK-MEL-5
COLO 205 = tested on: COLO 205
NCI/ADR-RES = tested on: NCI/ADR-RES

Row | SMILES | GI50 (SK-MEL-28) | GI50 (HT-29) | GI50 (KM12) | GI50 (SW-620) | GI50 (SNB-19) | GI50 (HOP-62) | GI50 (HOP-92) | GI50 (DU-145) | GI50 (SF-295) | GI50 (RXF 393) | GI50 (TK-10) | GI50 (EKVX) | GI50 (OVCAR-8) | GI50 (A549) | GI50 (OVCAR-3) | GI50 (HCT-15) | GI50 (UACC-257) | GI50 (SK-MEL-5) | GI50 (COLO 205) | GI50 (NCI/ADR-RES)
1 | Brc1ccccc1-c1ncc(-c2ccccc2)o1 | 40.6 µM (inactive) | 29.9 µM (inactive) | 17.4 µM (inactive) | 35.6 µM (inactive) | > 100 µM (inactive) | 27.8 µM (inactive) | 17.8 µM (inactive) | 32.1 µM (inactive) | 33.9 µM (inactive) | 21.7 µM (inactive) | 47.2 µM (inactive) | 6.7 µM (inactive) | 37.1 µM (inactive) | 44.7 µM (inactive) | 22 µM (inactive) | 7.36 µM | 30.3 µM (inactive) | 18.1 µM (inactive) | 20.1 µM (inactive) | 30.8 µM (inactive)
2 | Clc1nc2c(N3CCCC3)nc(N3CCNCC3)nc2[nH]1 | 22.3 µM (inactive) | 17.4 µM (inactive) | 18.1 µM (inactive) | 21.2 µM (inactive) | 17.6 µM (inactive) | 20 µM (inactive) | 16.6 µM (inactive) | 16.4 µM (inactive) | 18.7 µM (inactive) | 14.1 µM (inactive) | 57.5 µM (inactive) | 17.3 µM (inactive) | 16 µM (inactive) | 17.9 µM (inactive) | 18 µM (inactive) | 18.9 µM | 19.3 µM (inactive) | 15.1 µM (inactive) | 16.4 µM (inactive) | 37.2 µM (inactive)
